Test results taken from patent publication US20240124418A1 (BioTheryX, Inc., priority 2020, published 2024).

Test system: TNF-α
Assay: Cell-based TNF-α inhibition assay (LPS-induced PBMCs, Meso Scale)
Conditions: PBMC, PBMCs pretreated 1 h, LPS 100 ng/mL 18-24 h, percentage of stimulated DMSO control; for inhibition at 0.1 µM: compound concentration 0.1 μM; for inhibition at 1 µM: compound concentration 1 μM
Experimental: Example B1. Cell-Based TNF-α Inhibition Assay
Frozen primary blood mononuclear cells (PBMCs) were quick thawed, washed once with RPMI 1640 media supplemented with 10% fetal bovine serum, 1% penicillin, and 1% streptomycin, and plated in a 96 well plate at 200,000 cells per well. The cells were pretreated with DMSO only as a control or a compound for 1 h, and then induced with LPS (lipopolysaccharide) (100 ng/mL) for 18-24 h. The supernatant was analyzed for TNF-α using the Meso Scale assay. Compound activity was determined as a percentage of the stimulated DMSO control. The results are summarized in Table 1, where A represents a percent inhibition value ≥60%; B represents a percent inhibition value <60% and ≥40%; C represents a percent inhibition value <40% and ≥20%; and D represents a single percent inhibition value <20%.

| Structure (SMILES) | inhibition at 0.1 µM [%] | inhibition at 1 µM [%] |
| --- | --- | --- |
| CCOc1cc([C@@H](CS(C)(=O)=O)N2C(=O)c3cc(C#CCCCCCN4CCC(c5cc(F)cc6c5CN(C5CCC(=O)NC5=O)C6=O)CC4)cc(NC(C)=O)c3C2=O)ccc1OC (stereo partly drawn) [Compound A2, N-(6-(7-(4-(2-(2,6-Dioxopiperidin-3-yl)-6-fluoro-1-oxoisoindolin-4-yl)-piperidin-1-yl)hept-1-yn-1-yl)-2-((S)-1-(3-ethoxy-4-methoxyphenyl)-2-(methylsulfonyl)ethyl)-1,3-dioxoisoindolin-4-yl)acetamide] | ≥ 60 |  |
| CCOc1cc([C@@H](CS(C)(=O)=O)N2C(=O)c3cc(CCCN4CCC(c5cc(F)cc6c5CN(C5CCC(=O)NC5=O)C6=O)CC4)cc(NC(C)=O)c3C2=O)ccc1OC (stereo partly drawn) [Compound A5, N-(6-(3-(4-(2-(2,6-Dioxopiperidin-3-yl)-6-fluoro-1-oxoisoindolin-4-yl)piperidin-1-yl)propyl)-2-((S)-1-(3-ethoxy-4-methoxyphenyl)-2-(methylsulfonyl)ethyl)-1,3-dioxoisoindolin-4-yl)acetamide] | ≥ 60 |  |
| CCOc1cc([C@@H](CS(C)(=O)=O)N2C(=O)c3cccc(NC(=O)CCCCCCCCNCc4ccc(COc5cccc6c5CN(C5CCC(=O)NC5=O)C6=O)cc4)c3C2=O)ccc1OC (stereo partly drawn) [Compound A16, 9-({[4-({[2-(2,6-Dioxopiperidin-3-yl)-1-oxo-2,3-dihydro-1H-isoindol-4-yl]oxy}-methyl)phenyl]methyl}amino)-N-{2-[(1S)-1-(3-ethoxy-4-methoxyphenyl)-2-methanesulfonylethyl]-1,3-dioxo-2,3-dihydro-1H-isoindol-4-yl}nonanamide] | ≥ 60 | ≥ 60 |
| CCOc1cc([C@@H](CS(C)(=O)=O)N2C(=O)c3c(CCCCCCCCCCCCN4CCC(c5cc(F)cc6c5CN(C5CCC(=O)NC5=O)C6=O)CC4)ccc(NC(C)=O)c3C2=O)ccc1OC (stereo partly drawn) [Compound A17, N-[7-(12-{4-[2-(2,6-Dioxopiperidin-3-yl)-6-fluoro-1-oxo-2,3-dihydro-1H-isoindol-4-yl]piperidin-1-yl}dodecyl)-2-[(1S)-1-(3-ethoxy-4-methoxyphenyl)-2-methanesulfonylethyl]-1,3-dioxo-2,3-dihydro-1H-isoindol-4-yl]acetamide] | ≥ 60 | ≥ 60 |
| CCOc1cc([C@@H](CS(C)(=O)=O)N2C(=O)c3c(N)ccc(CCCCCCCCCCCCN4CCC(c5cc(F)cc6c5CN(C5CCC(=O)NC5=O)C6=O)CC4)c3C2=O)ccc1OC (stereo partly drawn) [Compound A18, 4-Amino-7-(12-{4-[2-(2,6-Dioxopiperidin-3-yl)-6-fluoro-1-oxo-2,3-dihydro-1H-isoindol-4-yl]piperidin-1-yl}dodecyl)-2-[(1S)-1-(3-ethoxy-4-methoxyphenyl)-2-methanesulfonylethyl]-2,3-dihydro-1H-isoindole-1,3-dione] | ≥ 60 | ≥ 60 |
| CCOc1cc([C@@H](CS(C)(=O)=O)N2C(=O)c3cccc(NC(=O)CCCCCCCCn4cc(-c5cc6c(cc5F)C(=O)N(C5CCC(=O)NC5=O)C6)nn4)c3C2=O)ccc1OC (stereo partly drawn) [Compound A23, 9-{4-[2-(2,6-Dioxopiperidin-3-yl)-6-fluoro-1-oxo-2,3-dihydro-1H-isoindol-5-yl]-1H-1,2,3-triazol-1-yl}-N-{2-[(1S)-1-(3-ethoxy-4-methoxyphenyl)-2-methanesulfonylethyl]-1,3-dioxo-2,3-dihydro-1H-isoindol-4-yl}nonanamide] | ≥ 60 | ≥ 60 |
| CCOc1cc([C@@H](CS(C)(=O)=O)N2C(=O)c3cccc(NC(=O)CCCc4cn(CCN5CCC(c6cc7c(cc6F)C(=O)N(C6CCC(=O)NC6=O)C7)CC5)nn4)c3C2=O)ccc1OC (stereo partly drawn) [Compound A24, 4-[1-(2-{4-[2-(2,6-Dioxopiperidin-3-yl)-6-fluoro-1-oxo-2,3-dihydro-1H-isoindol-5-yl]piperidin-1-yl}ethyl)-1H-1,2,3-triazol-4-yl]-N-{2-[(1S)-1-(3-ethoxy-4-methoxyphenyl)-2-methanesulfonylethyl]-1,3-dioxo-2,3-dihydro-1H-isoindol-4-yl}butanamide] | ≥ 60 | ≥ 60 |
| CCOc1cc([C@@H](CS(C)(=O)=O)N2C(=O)c3cccc(NCCCCCCCCCN4CCC(c5cc6c(cc5F)C(=O)N(C5CCC(=O)NC5=O)C6)CC4)c3C2=O)ccc1OC (stereo partly drawn) [Compound A25, 4-[(9-{4-[2-(2,6-Dioxopiperidin-3-yl)-6-fluoro-1-oxo-2,3-dihydro-1H-isoindol-5-yl]piperidin-1-yl}nonyl)amino]-2-[(1S)-1-(3-ethoxy-4-methoxyphenyl)-2-methanesulfonylethyl]-2,3-dihydro-1H-isoindole-1,3-dione] | ≥ 60 | ≥ 60 |
| CCOc1cc([C@@H](CS(C)(=O)=O)N2C(=O)c3cccc(NC(=O)CCCCCCCCN4CCC(c5ccc6c(c5)CN(C5CCC(=O)NC5=O)C6=O)CC4)c3C2=O)ccc1OC (stereo partly drawn) [Compound A26, 9-{4-[2-(2,6-Dioxopiperidin-3-yl)-1-oxo-2,3-dihydro-1H-isoindol-5-yl]piperidin-1-yl}-N-{2-[(1S)-1-(3-ethoxy-4-methoxyphenyl)-2-methanesulfonylethyl]-1,3-dioxo-2,3-dihydro-1H-isoindol-4-yl}nonanamide] | ≥ 60 | ≥ 60 |
| CCOc1cc([C@@H](CS(C)(=O)=O)N2C(=O)c3cccc(CCCCCCCCCCN4CCC(c5cc6c(cc5F)C(=O)N(C5CCC(=O)NC5=O)C6)CC4)c3C2=O)ccc1OC (stereo partly drawn) [Compound A27, 4-(10-{4-[2-(2,6-Dioxopiperidin-3-yl)-6-fluoro-1-oxo-2,3-dihydro-1H-isoindol-5-yl]piperidin-1-yl}decyl)-2-[(1S)-1-(3-ethoxy-4-methoxyphenyl)-2-methanesulfonylethyl]-2,3-dihydro-1H-isoindole-1,3-dione] | ≥ 60 | ≥ 60 |
| CCOc1cc([C@@H](CS(C)(=O)=O)N2C(=O)c3cccc(NC(=O)CN4CCN(CCCCN5CCC(c6cc7c(cc6F)C(=O)N(C6CCC(=O)NC6=O)C7)CC5)CC4)c3C2=O)ccc1OC (stereo partly drawn) [Compound A28, 2-[4-(4-{4-[2-(2,6-Dioxopiperidin-3-yl)-6-fluoro-1-oxo-2,3-dihydro-1H-isoindol-5-yl]piperidin-1-yl}butyl)piperazin-1-yl]-N-{2-[(1S)-1-(3-ethoxy-4-methoxyphenyl)-2-methanesulfonylethyl]-1,3-dioxo-2,3-dihydro-1H-isoindol-4-yl}acetamide] | 40 to 60 | ≥ 60 |
| CCOc1cc([C@@H](CS(C)(=O)=O)N2C(=O)c3cccc(NC(=O)CCCCCN4CCC(N5CCC(c6cc7c(cc6F)C(=O)N(C6CCC(=O)NC6=O)C7)CC5)CC4)c3C2=O)ccc1OC (stereo partly drawn) [Compound A29, 6-{4-[2-(2,6-Dioxopiperidin-3-yl)-6-fluoro-1-oxo-2,3-dihydro-1H-isoindol-5-yl]-[1,4′-bipiperidin]-1′-yl}-N-{2-[(1S)-1-(3-ethoxy-4-methoxyphenyl)-2-methanesulfonylethyl]-1,3-dioxo-2,3-dihydro-1H-isoindol-4-yl}hexanamide] | 40 to 60 | ≥ 60 |
| CCOc1cc([C@@H](CS(C)(=O)=O)N2C(=O)c3cccc(NC(=O)CCCCCCNCc4ccc(OCc5scc6c5CN([C@H]5CCC(=O)NC5=O)C6=O)cc4)c3C2=O)ccc1OC [Compound A38, 7-((4-((5-((S)-2,6-Dioxopiperidin-3-yl)-4-oxo-5,6-dihydro-4H-thieno[3,4-c]pyrrol-1-yl)methoxy)benzyl)amino)-N-(2-((S)-1-(3-ethoxy-4-methoxyphenyl)-2-(methylsulfonyl)ethyl)-1,3-dioxoisoindolin-4-yl)heptanamide] | ≥ 60 |  |
| CCOc1cc([C@@H](CS(C)(=O)=O)N2C(=O)c3cccc(NC(=O)CCCCNCc4ccc(OCc5scc6c5CN(C5CCC(=O)NC5=O)C6=O)cc4)c3C2=O)ccc1OC (stereo partly drawn) [Compound A39, 5-((4-((5-(2,6-Dioxopiperidin-3-yl)-4-oxo-5,6-dihydro-4H-thieno[3,4-c]pyrrol-1-yl)methoxy)benzyl)amino)-N-(2-((S)-1-(3-ethoxy-4-methoxyphenyl)-2-(methylsulfonyl)ethyl)-1,3-dioxoisoindolin-4-yl)pentanamide] | ≥ 60 |  |
| CCOc1cc([C@@H](CS(C)(=O)=O)N2C(=O)c3cccc(NC(=O)CCCN4CCN(CCNCc5ccc(OCc6scc7c6CN(C6CCC(=O)NC6=O)C7=O)cc5)CC4)c3C2=O)ccc1OC (stereo partly drawn) [Compound A45, 4-[4-(2-{[(4-{[5-(2,6-Dioxopiperidin-3-yl)-4-oxo-4H,5H,6H-thieno[3,4-c]pyrrol-1-yl]methoxy}phenyl)methyl]amino}ethyl)piperazin-1-yl]-N-{2-[(1S)-1-(3-ethoxy-4-methoxy-phenyl)-2-methanesulfonylethyl]-1,3-dioxo-2,3-dihydro-1H-isoindol-4-yl}butanamide] | ≥ 60 | ≥ 60 |
| CCOc1cc([C@@H](CS(C)(=O)=O)N2C(=O)c3cccc(NC(=O)CCCCCCCCCCN(C)Cc4ccc(OCc5scc6c5CN(C5CCC(=O)NC5=O)C6=O)cc4)c3C2=O)ccc1OC (stereo partly drawn) [Compound A46, 11-{[(4-{[5-(2,6-Dioxopiperidin-3-yl)-4-oxo-4H,5H,6H-thieno[3,4-c]pyrrol-1-yl]methoxy}phenyl)methyl](methyl)amino}-N-{2-[(1S)-1-(3-ethoxy-4-methoxyphenyl)-2-methanesulfonylethyl]-1,3-dioxo-2,3-dihydro-1H-isoindol-4-yl}undecanamide] | ≥ 60 | ≥ 60 |
| CCOc1cc([C@@H](CS(C)(=O)=O)N2C(=O)c3cccc(NC(=O)CCCCCCC4CN(Cc5ccc(OCc6scc7c6CN(C6CCC(=O)NC6=O)C7=O)cc5)CCO4)c3C2=O)ccc1OC (stereo partly drawn) [Compound A47] | ≥ 60 | ≥ 60 |
